The values below come from US20100216779A1 (GLAXOSMITHKLINE LLC, priority 2007, published 2010).

Type in all cases: cell-based
Experiment [1] has as its target T1, IR (NIH-3T3 cells over expressing human IGF-1R or IR) (Homo sapiens, UniProt P06213).
T1 construct: expressed in transfected cells; host or cells: NIH-3T3 (mouse fibroblasts)
Put plainly: IR cellular autophosphorylation (DELFIA). The note with it: NIH-3T3 cells over expressing IR, insulin stimulated. Put shortly: (§1)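 Readout: DELFIA on lysates, with anti-IGF-1R or anti-IR capture and europium anti-pTyr detection, expressed relative to 100% ligand-stimulated signal. Human IGF-1R- or IR-overexpressing NIH-3T3 cells got compound (1.5 nM–30 uM) for 2 h before 15 min IGF-1 (30 ng/mL) or insulin (3 ug/mL).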

Experiment [2] has as its system NCI-H929 (multiple myeloma). Put plainly: Inhibition of cell proliferation, CellTiter-Glo, NCI-H929. As to conditions: Homo sapiens, 72 h. Put shortly:
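Cells were grown in medium with 10% FBS at 37° C, 5% CO2. Cell number was read as CellTiter-Glo luminescence (cellular ATP), with untreated wells as control.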

A further experiment deals with COLO205 (colon). Briefly: Inhibition of cell proliferation, CellTiter-Glo, COLO205. As to conditions: Homo sapiens, COLO 205, 72 h. Put shortly: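 Exponentially growing COLO205 cells in medium with 10% FBS were plated below 2000 cells/well at 37 °C, 5% CO2. Untreated wells served as controls.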
On the technique in general: Cellular ATP, detected with luciferase, serves as a proxy for viable cell number.

The target of experiment [3] is T2, human IGF-1R (NIH-3T3 cells over expressing human IGF-1R) (Homo sapiens, UniProt P08069).
T2 construct: expressed in transfected cells; host or cells: NIH-3T3 (mouse fibroblasts)
T2 sequence (P08069 31-1367): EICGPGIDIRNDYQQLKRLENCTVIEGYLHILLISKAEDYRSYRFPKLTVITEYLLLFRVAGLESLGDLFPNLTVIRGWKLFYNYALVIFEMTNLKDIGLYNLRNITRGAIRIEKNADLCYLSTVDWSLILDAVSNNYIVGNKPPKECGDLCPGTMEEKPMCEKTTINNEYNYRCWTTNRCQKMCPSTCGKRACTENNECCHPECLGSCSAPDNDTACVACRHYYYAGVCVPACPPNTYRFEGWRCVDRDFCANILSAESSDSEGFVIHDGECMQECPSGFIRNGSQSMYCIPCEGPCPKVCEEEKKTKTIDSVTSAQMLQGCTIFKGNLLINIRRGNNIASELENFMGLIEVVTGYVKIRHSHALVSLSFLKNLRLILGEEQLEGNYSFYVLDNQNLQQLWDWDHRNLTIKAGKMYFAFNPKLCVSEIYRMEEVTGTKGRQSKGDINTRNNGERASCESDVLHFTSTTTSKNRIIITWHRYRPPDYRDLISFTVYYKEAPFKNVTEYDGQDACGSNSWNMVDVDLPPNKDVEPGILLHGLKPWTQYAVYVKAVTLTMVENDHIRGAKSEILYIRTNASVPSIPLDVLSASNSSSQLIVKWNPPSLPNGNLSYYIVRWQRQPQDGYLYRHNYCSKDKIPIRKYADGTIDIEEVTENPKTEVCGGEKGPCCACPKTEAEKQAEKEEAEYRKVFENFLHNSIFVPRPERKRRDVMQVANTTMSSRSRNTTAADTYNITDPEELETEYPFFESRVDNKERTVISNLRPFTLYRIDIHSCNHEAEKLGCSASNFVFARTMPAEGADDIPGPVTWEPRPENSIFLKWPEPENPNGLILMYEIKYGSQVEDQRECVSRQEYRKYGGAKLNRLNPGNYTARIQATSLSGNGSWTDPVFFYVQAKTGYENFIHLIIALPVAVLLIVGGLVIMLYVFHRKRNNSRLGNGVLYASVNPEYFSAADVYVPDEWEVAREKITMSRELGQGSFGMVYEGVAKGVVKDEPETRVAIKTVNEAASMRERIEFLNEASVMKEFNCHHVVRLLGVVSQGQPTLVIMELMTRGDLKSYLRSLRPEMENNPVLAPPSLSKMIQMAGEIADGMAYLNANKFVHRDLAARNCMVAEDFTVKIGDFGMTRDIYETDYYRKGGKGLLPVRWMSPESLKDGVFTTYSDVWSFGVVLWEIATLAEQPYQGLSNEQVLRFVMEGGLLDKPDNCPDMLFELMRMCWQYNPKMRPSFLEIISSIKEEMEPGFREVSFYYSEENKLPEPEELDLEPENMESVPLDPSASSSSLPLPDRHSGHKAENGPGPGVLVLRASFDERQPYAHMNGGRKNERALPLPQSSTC
Put plainly: IGF-1R cellular autophosphorylation (DELFIA). As to conditions: IGF-1 stimulated. Put shortly:
as §1

Where only a bound is given, the exact number is not on record here.

T1 sequence (P06213 28-1382): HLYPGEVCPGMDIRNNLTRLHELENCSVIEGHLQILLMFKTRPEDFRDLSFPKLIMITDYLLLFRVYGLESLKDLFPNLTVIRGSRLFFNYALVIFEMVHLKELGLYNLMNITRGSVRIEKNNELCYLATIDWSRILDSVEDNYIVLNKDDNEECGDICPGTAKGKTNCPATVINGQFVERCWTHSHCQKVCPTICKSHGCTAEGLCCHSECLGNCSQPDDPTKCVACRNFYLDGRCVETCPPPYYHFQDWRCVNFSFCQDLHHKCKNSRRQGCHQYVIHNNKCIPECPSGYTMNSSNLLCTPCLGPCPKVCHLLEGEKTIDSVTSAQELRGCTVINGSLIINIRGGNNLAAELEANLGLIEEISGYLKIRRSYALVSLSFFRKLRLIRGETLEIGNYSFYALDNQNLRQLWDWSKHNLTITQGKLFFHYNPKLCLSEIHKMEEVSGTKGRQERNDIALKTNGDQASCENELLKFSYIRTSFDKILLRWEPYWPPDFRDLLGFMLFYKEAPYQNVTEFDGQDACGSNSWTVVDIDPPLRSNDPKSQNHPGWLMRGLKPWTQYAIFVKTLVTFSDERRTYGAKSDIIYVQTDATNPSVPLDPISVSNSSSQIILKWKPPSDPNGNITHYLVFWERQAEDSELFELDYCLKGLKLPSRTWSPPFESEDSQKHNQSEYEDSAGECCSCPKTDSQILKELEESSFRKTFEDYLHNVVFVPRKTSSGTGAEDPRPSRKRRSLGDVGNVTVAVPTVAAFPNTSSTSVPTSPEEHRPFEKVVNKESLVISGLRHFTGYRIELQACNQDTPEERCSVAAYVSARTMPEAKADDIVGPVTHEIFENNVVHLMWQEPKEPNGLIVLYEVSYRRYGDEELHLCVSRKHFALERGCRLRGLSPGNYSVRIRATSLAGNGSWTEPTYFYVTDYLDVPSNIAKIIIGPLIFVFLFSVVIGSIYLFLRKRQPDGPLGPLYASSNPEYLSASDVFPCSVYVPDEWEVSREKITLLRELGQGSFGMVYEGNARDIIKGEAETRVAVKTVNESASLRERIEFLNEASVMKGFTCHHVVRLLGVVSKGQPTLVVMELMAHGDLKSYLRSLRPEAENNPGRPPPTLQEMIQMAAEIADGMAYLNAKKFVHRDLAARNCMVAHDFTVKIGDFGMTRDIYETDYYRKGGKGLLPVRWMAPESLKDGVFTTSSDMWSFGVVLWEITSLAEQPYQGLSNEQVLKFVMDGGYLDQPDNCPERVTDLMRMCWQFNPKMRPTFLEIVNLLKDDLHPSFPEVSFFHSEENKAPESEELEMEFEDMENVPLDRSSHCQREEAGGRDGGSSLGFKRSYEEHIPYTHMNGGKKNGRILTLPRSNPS

Usually IC50 stands for the midpoint of a concentration-inhibition curve. Read a high IC50 as a need for much substance. As to `COc1cc(N2CCN(S(C)(=O)=O)CC2)ccc1Nc1nccc(-c2c(-c3ccc(OC)c(C(=O)Nc4c(F)cccc4F)c3)nc3ccccn23)n1` [Example 233, N-(2,6-difluorophenyl)-2-(methyloxy)-5-{3-[2-({2-(methyloxy)-4-[4-(methylsulfonyl)-1-piperazinyl]phenyl}amino)-4-pyrimidinyl]imidazo[1,2-a]pyridin-2-yl}benzamide], the IC50 in experiment [1] was less than 100 nM; in experiment [2], less than 250 nM; with COLO205 (colon), 250 to 1000 nM; in experiment [3], less than 100 nM.
For `CCCN1CCC(c2cc(OC)c(Nc3nccc(-c4c(-c5ccc(OCC)c(C(=O)Nc6c(F)cccc6F)c5)nc5ccccn45)n3)cc2C)CC1` [Example 158, N-(2,6-difluorophenyl)-2-(ethyloxy)-5-[3-(2-{[5-methyl-2-(methyloxy)-4-(1-propyl-4-piperidinyl)phenyl]amino}-4-pyrimidinyl)imidazo[1,2-a]pyridin-2-yl]benzamide], the IC50 is less than 100 nM in experiment [1], less than 250 nM in experiment [2], less than 250 nM with COLO205 (colon) and less than 100 nM in experiment [3].
Consider `COCCN1CCN(c2cc(OC)c(Nc3nccc(-c4c(-c5cccc(C(=O)Nc6c(F)cccc6F)c5)nc5ccccn45)n3)cc2C)CC1` [Example 243, N-(2,6-difluorophenyl)-3-(3-{2-[(5-methyl-2-(methyloxy)-4-{4-[2-(methyloxy)ethyl]-1-piperazinyl}phenyl)amino]-4-pyrimidinyl}imidazo[1,2-a]pyridin-2-yl)benzamide], for which the IC50 in experiment [1] is less than 100 nM; in experiment [2], less than 250 nM; with COLO205 (colon), 250 to 1000 nM; in experiment [3] it was less than 100 nM.
As to `COc1cc(N2CCN(C(C)C)CC2)ccc1Nc1nccc(-c2c(-c3ccc(OC)c(C(=O)Nc4c(F)cccc4F)c3)nc3ccccn23)n1` [Example 176, N-(2,6-difluorophenyl)-5-[3-(2-{[4-[4-(1-methylethyl)-1-piperazinyl]-2-(methyloxy)phenyl]-amino}-4-pyrimidinyl)imidazo[1,2-a]pyridin-2-yl]-2-(methyloxy)benzamide], the IC50 in experiment [1] is less than 100 nM; in experiment [2], less than 250 nM; in the experiment with COLO205 (colon), 250 to 1000 nM; in experiment [3], less than 100 nM.
On to `COc1cc(N2CCC(N3CCN(S(C)(=O)=O)CC3)CC2)c(C)cc1Nc1nccc(-c2c(-c3ccc(OC)c(C(=O)Nc4c(F)cccc4F)c3)nc3ccccn23)n1` [Example 236, N-(2,6-difluorophenyl)-5-(3-{2-[(5-methyl-2-(methyloxy)-4-{4-[4-(methylsulfonyl)-1-piperazinyl]-1-piperidinyl}phenyl)amino]-4-pyrimidinyl}imidazo[1,2-a]pyridin-2-yl)-2-(methyloxy)benzamide], for which the concentration for half-maximal inhibition (IC50) was less than 100 nM in experiment [1], less than 250 nM in experiment [2], less than 250 nM with COLO205 (colon) and less than 100 nM in experiment [3].
On to `CCOc1cc(N2CCN(CCS(C)(=O)=O)CC2)c(CC)cc1Nc1nccc(-c2c(-c3ccc(OCC)c(C(=O)Nc4c(F)cccc4F)c3)nc3ccccn23)n1` [Example 211, N-(2,6-difluorophenyl)-5-(3-{2-[(5-ethyl-2-(ethyloxy)-4-{4-[2-(methylsulfonyl)ethyl]-1-piperazinyl}phenyl)amino]-4-pyrimidinyl}imidazo[1,2-a]pyridin-2-yl)-2-(ethyloxy)benzamide], for which the IC50 in experiment [1] is less than 100 nM; in experiment [2], less than 250 nM; with COLO205 (colon) it was less than 250 nM; in experiment [3] it was less than 100 nM.
For `CC(C)Cc1cc(N2CCC(N3CCCCC3)CC2)ccc1Nc1nccc(-c2c(-c3cccc(C(=O)Nc4c(F)cccc4F)c3)nc3ccccn23)n1` [Example 42, 3-[3-(2-{[4-(1,4′-bidideridin-1′-yl)-2-(2-methylpropyl)phenyl]amino}-4-pyrimidinyl)imidazo[1,2-a]pyridin-2-yl]-N-(2,6-difluorophenyl)benzamide], the IC50 in experiment [1] was more than 500 nM; in experiment [2], more than 1000 nM; with COLO205 (colon), more than 1000 nM; in experiment [3] it was less than 100 nM.
For the molecule `CCCN1CCN(c2ccc(Nc3nccc(-c4c(-c5cccc(C(=O)Nc6c(F)cccc6F)c5)nc5ccccn45)n3)c(OCC)c2)CC1` [Example 153, N-(2,6-difluorophenyl)-3-[3-(2-{[2-(ethyloxy)-4-(4-propyl-1-piperazinyl)phenyl]amino}-4-pyrimidinyl)imidazo[1,2-a]pyridin-2-yl]benzamide], the IC50 in experiment [1] was less than 100 nM; in experiment [2], 250 to 1000 nM; in the experiment with COLO205 (colon), 250 to 1000 nM; in experiment [3] it was 100 to 500 nM.
For the molecule `COc1c(Nc2nccc(-c3c(-c4cccc(C(=O)Nc5c(F)cccc5F)c4)nc4ccccn34)n2)ccc(N2CCC(N3CCCCC3)CC2)c1C` [Example 54, 3-[3-(2-{[4-(1,4′-bipiperidin-1′-yl)-3-methyl-2-(methyloxy)phenyl]amino}-4-pyrimidinyl)imidazo[1,2-a]pyridin-2-yl]-N-(2,6-difluorophenyl)benzamide], the IC50 is more than 500 nM in experiment [1], more than 1000 nM in experiment [2], more than 1000 nM in the experiment with COLO205 (colon) and more than 500 nM in experiment [3].
In the case of `COc1cc(C2CCN(C3CCN(CCS(C)(=O)=O)CC3)CC2)ccc1Nc1nccc(-c2c(-c3cccc(C(=O)Nc4c(F)cccc4F)c3)nc3ccccn23)n1` [Example 99, N-(2,6-difluorophenyl)-3-(3-{2-[(2-(methyloxy)-4-{1′-[2-(methylsulfonyl)ethyl]-1,4′-bipiperidin-4-yl}phenyl)amino]-4-pyrimidinyl}imidazo[1,2-a]pyridin-2-yl)benzamide], the IC50 is less than 100 nM in experiment [1], less than 250 nM in experiment [2], less than 250 nM in the experiment with COLO205 (colon) and less than 100 nM in experiment [3].
For `COc1cc(N2CCC(N3CCN(CCS(C)(=O)=O)CC3)CC2)c(Cl)cc1Nc1nccc(-c2c(-c3cccc(C(=O)Nc4c(F)cccc4F)c3)nc3ccccn23)n1` [Example 114, 3-[3-(2-{[5-chloro-2-(methyloxy)-4-(4-{4-[2-(methylsulfonyl)ethyl]-1-piperazinyl}-1-piperidinyl)phenyl]amino}-4-pyrimidinyl)imidazo[1,2-a]pyridin-2-yl]-N-(2,6-difluorophenyl)-benzamide], the IC50 in experiment [1] is less than 100 nM; in experiment [2], less than 250 nM; in the experiment with COLO205 (colon) it was 250 to 1000 nM; in experiment [3], less than 100 nM.
For `CCCc1cc(C2CCN(CCS(C)(=O)=O)CC2)ccc1Nc1nccc(-c2c(-c3ccc(OC)c(C(=O)Nc4c(F)cccc4F)c3)nc3ccccn23)n1` [Example 167, N-(2,6-difluorophenyl)-2-(methyloxy)-5-(3-{2-[(4-{1-[2-(methylsulfonyl)ethyl]-4-piperidinyl}-2-propylphenyl)amino]-4-pyrimidinyl}imidazo[1,2-a]pyridin-2-yl)benzamide], the IC50 is less than 100 nM in experiment [1], more than 1000 nM in experiment [2], more than 1000 nM with COLO205 (colon) and less than 100 nM in experiment [3].
For the molecule `COc1cc(N2CCC(N3CCCCC3)CC2)ccc1Nc1nccc(-c2c(-c3ccc(OC)c(C(=O)Nc4c(F)cccc4F)c3)nc3cc(F)ccn23)n1` [Example 198, 5-[3-(2-{[4-(1,4′-bipiperidin-1′-yl)-2-(methyloxy)phenyl]amino}-4-pyrimidinyl)-7-fluoroimidazo[1,2-a]pyridin-2-yl]-N-(2,6-difluorophenyl)-2-(methyloxy)benzamide], the IC50 in experiment [1] is less than 100 nM; in experiment [2], less than 250 nM; in the experiment with COLO205 (colon), 250 to 1000 nM; in experiment [3] it was less than 100 nM.
